Test results taken from patent US20230382940A1, “ANTIVIRAL COMPOUNDS AND METHODS OF MAKING AND USING THE SAME” (Gilead Sciences, Inc., priority 2022, published 2023).
Like-named read-outs stand apart in the source and are kept apart here.

How the values were obtained:
Format in all cases: cell-based
[1] = test system: Human Rhinovirus 14 (HRV14); test: H1-HeLa HRV-CTG 384-well assay, HRV14, Example X; conditions: Rhinovirus B, 96 h, read-out: EC50 H1-HeLa_HRV 14_HRV-CTG 384-well Assay (per Ex. X)
Text: (§1) Example X: H1-HeLa HRV-CTG 384-Well Assay
(§2) H1-Hela cell line (ATCC, Manassas, VA, Cat #CRL-1958) was maintained in Dulbecco's […] (DMEM) (Corning, New York, NY, Cat #15-018CM) supplemented with 10% fetal bovine serum (FBS) (Hyclone, Logan, UT, Cat #SH30071-03), and 1× Penicillin-Streptomycin-L-Glutamine (Corning, New York, NY, Cat #30-009-CI). Cells were passaged 2 times per week to maintain sub-confluent densities and were used for experiments at passage 5-30. The Human Rhinovirus 1B (HRV1B) (ATCC, Manassas, VA, Cat #VR-1645), Human Rhinovirus 14 (HRV14) (ATCC, Manassas, VA, Cat #VR-284), and Human Rhinovirus 16 (HRV16) (ATCC, Manassas, VA, Cat #BR-283) was obtained through ATCC. Viral infection was monitored by determining viability of H1-HeLa cells as described below.
(§3) Test molecules are prepared in 100% DMSO in 384-well polypropylene plates (Greiner, Monroe, NC, Cat #784201) with 8 compounds per plate in grouped replicates of 4 at 10 serially diluted concentrations (1:3). The serially diluted compounds were transferred to low dead volume Echo plates (Labcyte, Sunnyvale, CA, Cat #LP-0200).
(§4) The test compounds were spotted to 384-well assay plates (Greiner, Monroe, NC, Cat #781091) at 200 nL per well using an Echo acoustic dispenser (Labcyte, Sunnyvale, CA). H1-HeLa cells were harvested and suspended in DMEM (supplemented with 2% FBS and 1× Penicillin-Streptomycin-L-Glutamine) and seeded to the pre-spotted assay plates at 5,000 cells per well in 30 μL. HRV1B, HRV14, and HRV16 was diluted in DMEM (supplemented with 2% FBS and 1× Penicillin-Streptomycin-L-Glutamine) at 97.1 million Infectious Units (IU) per mL, 151 million IU per mL and 221 million IU per mL respectively. 10 μL of virus per well was added to the assay plates containing cells and compounds, for an MOI of 0.5, 1.0, and 0.25 respectively. The assay plates were incubated for 4 days at 37° C. and 5% CO2. At the end of incubation, Celltiter-Glo (Promega, Madison, WI, Cat #G7573) was prepared. The assay plates and Celltiter-Glo reagent were equilibrated to room temperature for at least 15 minutes. 40 μL per well of Celltiter-Glo reagent was added and the plates were incubated at room temperature for 15 minutes before reading the luminescence signal on an EnVision multimode plate reader (Perkin Elmer, Waltham, MA). Rupintrivir was used as positive control and DMSO was used as negative control. Values were normalized to the positive and negative controls (as 0% and 100% replication, respectively) and data was fitted using non-linear regression analysis by Gilead's dose response tool. The EC50 value for each compound was defined as the concentration reducing viral replication by 50%.

[2] = test system: Human Rhinovirus 1B (HRV1B); test: H1-HeLa HRV-CTG 384-well assay, HRV1B, Example X; conditions: Rhinovirus A, 96 h, read-out: EC50 H1-HeLa_HRV 1B_HRV-CTG 384-well Assay (per Ex. X)
Text: as §1, §2, §3, §4

[3] = test system: Human Rhinovirus 16 (HRV16); test: H1-HeLa HRV-CTG 384-well assay, HRV16, Example X; conditions: Rhinovirus A, 96 h, read-out: EC50 H1-HeLa_HRV 16_HRV-CTG 384-well Assay (per Ex. X)
Text: as §1, §2, §3, §4

[4] = test system: Respiratory syncytial virus recombinant with luciferase (RSV-Luc5); test: HEp-2 RSV-Luc5 384-well assay (EC50 RSVFLUC Hep2-384 v2), Example V; conditions: human respiratory syncytial virus, HEp-2, 72 h, read-out: EC50 RSV FLuc Hep-2 384 V2 (per Ex. V)
Text: Example V: HEp-2 RSV-Luc5 384-Well Assay (EC50 RSVFLUC Hep2-384 v2)
HEp-2 cell line was purchased from ATCC (Manassas, VA Cat #CCL-23) and maintained in Dulbecco's […] (DMEM) (Corning, New York, NY, Cat #15-018CM) supplemented with 10% fetal bovine serum (FBS) (Hyclone, Logan, UT, Cat #SH30071-03) and 1× Penicillin-Streptomycin-L-Glutamine (Corning, New York, NY, Cat #30-009-C1). Cells were passaged 2 times per week to maintain sub-confluent densities and were used for experiments at passage 5-20. Respiratory syncytial virus recombinant with luciferase (RSV-Luc5) (≥1×107 TCID50/ml) was purchased from Microbiologics (Saint Cloud, MN). Viral replication was determined in HEp-2 cells in the following manner.
as §3, with “Compounds” for “Test molecules”
The test compounds were spotted to 384-well assay plates (Greiner, Monroe, NC, Cat #781091) at 200 nL per well. HEp-2 cells were harvested and suspended in DMEM (supplemented with 10% FBS and 1× Penicillin-Streptomycin-L-Glutamine) and seeded to the pre-spotted assay plates at 4,000 cells per well in 30 μL. RSV-Luc5 viruses were diluted in DMEM (supplemented with 10% FBS and 1× Penicillin-Streptomycin-L-(Glutamine) at 200,000 Infectious Units (IU) per mL and 10 μL per well was added to the assay plates containing cells and compounds, for an MOI=0.5. The assay plates were incubated for 3 days at 37° C. and 5% CO2. At the end of incubation, One-Glo reagent (Promega, Madison, WI, Cat #E6120) was prepared. The assay plates and One-Glo reagent were equilibrated to room temperature for at least 15 minutes. 40 μL per well of One-Glo reagent was added and the plates were incubated at room temp for 15 minutes before reading the luminescence signal on an EnVision multimode plate reader (Perkin Elmer, Waltham, MA). Remdesivir was used as positive control and DMSO was used as negative control. Values were normalized to the positive and negative controls (as 0% and 100% replication, respectively) and data was fitted using non-linear regression analysis by Gilead's dose response tool. The EC50 value for each compound was then determined as the concentration reducing the viral replication by 50%.

[5] = H1-HeLa cells, HRV14 MOI 1.0, 4 days, Celltiter-Glo
[6] = H1-HeLa cells, HRV1B MOI 0.5, 4 days, Celltiter-Glo
[7] = H1-HeLa cells, HRV16 MOI 0.25, 4 days, Celltiter-Glo

N#C[C@]1(COC(=O)OC2CCCC2)O[C@@H](c2ccc3c(N)ncnn23)[C@H](O)[C@@H]1O [Compound 1, ((2R,3S,4R,5S)-5-(4-aminopyrrolo[2,1-f][1,2,4]triazin-7-yl)-2-cyano-3,4-dihydroxytetrahydrofuran-2-yl)methyl cyclopentyl carbonate] showed an EC50 [1, 5] of 19.1 µM, an EC50 [2, 6] of 8.65 µM and an EC50 [3, 7] of 31.2 µM. The EC50 [4] was 21.2 µM.

CC(C)(C)COC(=O)OC[C@@]1(C#N)O[C@@H](c2ccc3c(N)ncnn23)[C@H](O)[C@@H]1O [Compound 2, ((2R,3S,4R,5S)-5-(4-aminopyrrolo[2,1-f][1,2,4]triazin-7-yl)-2-cyano-3,4-dihydroxytetrahydrofuran-2-yl)methyl neopentyl carbonate] gave an EC50 [1, 5] of 7.66 µM, an EC50 [2, 6] of 7 µM and an EC50 [3, 7] of 9.74 µM. For the same compound, the EC50 [4] was 9.49 µM.

For CC[C@H](C)OC(=O)OC[C@@]1(C#N)O[C@@H](c2ccc3c(N)ncnn23)[C@H](O)[C@@H]1O [Compound 4, ((2R,3S,4R,5S)-5-(4-aminopyrrolo[2,1-f][1,2,4]triazin-7-yl)-2-cyano-3,4-dihydroxytetrahydrofuran-2-yl)methyl ((S)-sec-butyl) carbonate], the EC50 [1, 5] was 22.2 µM, the EC50 [2, 6] was 11.2 µM and the EC50 [3, 7] was 38.6 µM. The EC50 [4] was 24.1 µM.

N#C[C@]1(COC(=O)OCCc2ccccc2)O[C@@H](c2ccc3c(N)ncnn23)[C@H](O)[C@@H]1O [Compound 5, ((2R,3S,4R,5S)-5-(4-aminopyrrolo[2,1-f][1,2,4]triazin-7-yl)-2-cyano-3,4-dihydroxytetrahydrofuran-2-yl)methyl phenethyl carbonate] was tested, and the EC50 [1, 5] was 9.75 µM, the EC50 [2, 6] was 3.35 µM and the EC50 [3, 7] was 11.2 µM. The EC50 [4] was 17.9 µM.

With COC(=O)OC[C@@]1(C#N)O[C@@H](c2ccc3c(N)ncnn23)[C@H](O)[C@@H]1O [Compound 6, ((2R,3S,4R,5S)-5-(4-aminopyrrolo[2,1-f][1,2,4]triazin-7-yl)-2-cyano-3,4-dihydroxytetrahydrofuran-2-yl)methyl methyl carbonate] the EC50 [1, 5] was 15.2 µM, the EC50 [2, 6] was 8.91 µM and the EC50 [3, 7] was 13.7 µM. It also gave an EC50 [4] of 17.8 µM.

Work on CC(C)CCOC(=O)OC[C@@]1(C#N)O[C@@H](c2ccc3c(N)ncnn23)[C@H](O)[C@@H]1O [Compound 7, ((2R,3S,4R,5S)-5-(4-aminopyrrolo[2,1-f][1,2,4]triazin-7-yl)-2-cyano-3,4-dihydroxytetrahydrofuran-2-yl)methyl isopentyl carbonate] yielded an EC50 [1, 5] of 7.31 µM, an EC50 [2, 6] of 2.81 µM and an EC50 [3, 7] of 9.13 µM. The EC50 [4] was 16.8 µM.

For CC(C)COC(=O)OC[C@@]1(C#N)O[C@@H](c2ccc3c(N)ncnn23)[C@H](O)[C@@H]1O [Compound 8, ((2R,3S,4R,5S)-5-(4-aminopyrrolo[2,1-f][1,2,4]triazin-7-yl)-2-cyano-3,4-dihydroxytetrahydrofuran-2-yl)methyl isobutyl carbonate], the EC50 [1, 5] was 7.6 µM, the EC50 [2, 6] was 5.16 µM and the EC50 [3, 7] was 9.82 µM. It also gave an EC50 [4] of 11.5 µM.

With CCCOC(=O)OC[C@@]1(C#N)O[C@@H](c2ccc3c(N)ncnn23)[C@H](O)[C@@H]1O [Compound 9, ((2R,3S,4R,5S)-5-(4-aminopyrrolo[2,1-f][1,2,4]triazin-7-yl)-2-cyano-3,4-dihydroxytetrahydrofuran-2-yl)methyl propyl carbonate] the EC50 [1, 5] was 14.7 µM, the EC50 [2, 6] was 7.57 µM and the EC50 [3, 7] was 10.9 µM. The EC50 [4] was 13.3 µM.

CC[C@@H](C)OC(=O)OC[C@@]1(C#N)O[C@@H](c2ccc3c(N)ncnn23)[C@H](O)[C@@H]1O [Compound 10, ((2R,3S,4R,5S)-5-(4-aminopyrrolo[2,1-f][1,2,4]triazin-7-yl)-2-cyano-3,4-dihydroxytetrahydrofuran-2-yl)methyl ((R)-sec-butyl) carbonate] showed an EC50 [1, 5] of 35.7 µM, an EC50 [2, 6] of 18.1 µM and an EC50 [3, 7] of 36.7 µM. It also gave an EC50 [4] of 24.7 µM.

CC(C)OC(=O)OC[C@@]1(C#N)O[C@@H](c2ccc3c(N)ncnn23)[C@H](O)[C@@H]1O [Compound 11, ((2R,3S,4R,5S)-5-(4-aminopyrrolo[2,1-f][1,2,4]triazin-7-yl)-2-cyano-3,4-dihydroxytetrahydrofuran-2-yl)methyl isopropyl carbonate] showed an EC50 [1, 5] of 31.1 µM, an EC50 [2, 6] of 12.2 µM and an EC50 [3, 7] of 37.4 µM. The EC50 [4] was 31.2 µM.

For N#C[C@]1(COC(=O)OC2CCOCC2)O[C@@H](c2ccc3c(N)ncnn23)[C@H](O)[C@@H]1O [Compound 12, ((2R,3S,4R,5S)-5-(4-aminopyrrolo[2,1-f][1,2,4]triazin-7-yl)-2-cyano-3,4-dihydroxytetrahydrofuran-2-yl)methyl (tetrahydro-2H-pyran-4-yl) carbonate], the EC50 [1, 5] was 27.2 µM, the EC50 [2, 6] was 10 µM and the EC50 [3, 7] was 30.3 µM. For the same compound, the EC50 [4] was over 50 µM.

In the case of CC(C)(C)OC(=O)OC[C@@]1(C#N)O[C@@H](c2ccc3c(N)ncnn23)[C@H](O)[C@@H]1O [Compound 13, ((2R,3S,4R,5S)-5-(4-aminopyrrolo[2,1-f][1,2,4]triazin-7-yl)-2-cyano-3,4-dihydroxytetrahydrofuran-2-yl)methyl tert-butyl carbonate], the EC50 ([1]; HRV14, H1-HeLa) is reported as 4.67 µM, the EC50 ([2]; HRV1B, H1-HeLa) is reported as 3.19 µM and the EC50 ([3]; HRV16, H1-HeLa) is reported as 7.67 µM. It also gave an EC50 [4] of 12.1 µM.
